Test system: patients with postpartum depression (PPD)
Test: Clinical trial of inhaled 5-MeO-DMT (IDR) in patients with postpartum depression
Protocol: The single-arm, open-label clinical trial will involve 15 adult female patients with clinically diagnosed postpartum depression (PPD).
The second dose (12 mg) will only be administered if: • a. A peak experience (total score of ≥75) has not been achieved following the 6 mg dose, and • b. The 6 mg dose was safe and well-tolerated according to the investigator, • c. Any psychoactive effects (PsE) of the prior dose have subsided, and • d. Pre-dose vital parameters and forced expiratory volume in one second (FEV1) are in normal range, or if outside of the normal range, are not clinically significant according to the investigator. • 3. Similarly, a third dose (18 mg) will only be administered if: • a. A peak experience (total score of ≥75) has not been achieved following the 12 mg dose, and • b. The 12 mg dose was safe and well-tolerated according to the investigator, and • c. Any PsE of the prior dose have subsided, and • d. Pre-dose vital parameters and forced expiratory volume in one second (FEV1) are in normal range, or if outside of the normal range, are not clinically significant according to the investigator.
The patients will be assessed for a peak psychedelic experience (based on a patient-scored visual analogue scale, the PE scale), sedation, and other endpoints after dosing.
Follow-up visits are planned for Day 1, and Day 7 after the dosing day.
The following criteria must be met by all patients considered for clinical trial participation: • 1. Is female and in the age range between 18 and 45 years (inclusive) at screening. • 2. Has a body mass index (BMI) in the range of 18.5 and 35 kg/m^2 (inclusive) at screening. • 3. Meets the trial criteria for PPD as assessed by a trial psychiatrist or registered psychologist: • a. Diagnosis of Major Depressive Disorder without psychotic features, confirmed by the Mini-International Neuropsychiatric Interview (MINI), with peri-partum onset that began no earlier than gestation and no later than the first 4 weeks postpartum. • b. Has a Montgomery-Åsberg Depression Rating Scale (MADRS) total score of equal to or greater than 28 at screening and pre-dose on Day 0. • 6. […] Patients must have a negative pregnancy test at screening and on the pre-test day (Day−1). • 5. Is willing to delay start of other antidepressant or anxiety medication until after the end of the trial at Day 7 and agrees to keep any psychotherapy unchanged during the trial.

COc1ccc2[nH]cc(CCN(C)C)c2c1 [5-MeO-DMT]
BIMF item 12 (taking good care of my baby's physical needs) score (PPD patient 1, Day 7): 6 | BIMF item 12 Δ vs Day 0 (PPD patient 1, Day 7): 0 | BIMF item 13 (taking good care of my physical needs) score (PPD patient 1, Day 7): 5 | BIMF item 13 Δ vs Day 0 (PPD patient 1, Day 7): 1 | BIMF item 14 (good decisions about my baby's health and well being) score (PPD patient 1, Day 7): 6 | BIMF item 14 Δ vs Day 0 (PPD patient 1, Day 7): 0 | BIMF item 15 (My baby and I are getting into a routine) score (PPD patient 1, Day 7): 6 | BIMF item 15 Δ vs Day 0 (PPD patient 1, Day 7): 1 | BIMF item 16 (I worry about how other people judge me) score (PPD patient 1, Day 7): 5 | BIMF item 16 Δ vs Day 0 (PPD patient 1, Day 7): 2 | BIMF item 17 (able to take care of my baby and my other responsibilities) score (PPD patient 1, Day 7): 5 | BIMF item 17 Δ vs Day 0 (PPD patient 1, Day 7): 0 | BIMF item 18 (Anxiety or worry often interferes with my mothering ability) score (PPD patient 1, Day 7): 5 | BIMF item 18 Δ vs Day 0 (PPD patient 1, Day 7): 3 | BIMF item 19 (getting better at taking care of my baby) score (PPD patient 1, Day 7): 1 | BIMF item 19 Δ vs Day 0 (PPD patient 1, Day 7): 1 | BIMF item 20 (satisfied with the job I am doing as a new mother) score (PPD patient 1, Day 7): 5 | BIMF item 20 Δ vs Day 0 (PPD patient 1, Day 7): −1 | BPRS Anxiety improvement (PPD patient 1, Day 7): 6 | BPRS Anxiety score (PPD patient 1, Day 7): 1 | BPRS Blunted affect improvement (PPD patient 1, Day 7): 0 | BPRS Blunted affect score (PPD patient 1, Day 7): 1 | BPRS Conceptual disorganization improvement (PPD patient 1, Day 7): 0 | BPRS Conceptual disorganization score (PPD patient 1, Day 7): 1 | BPRS Depressive Mood improvement (PPD patient 1, Day 7): 5 | BPRS Depressive Mood score (PPD patient 1, Day 7): 1 | BPRS Disorientation improvement (PPD patient 1, Day 7): 0 | BPRS Disorientation score (PPD patient 1, Day 7): 1 | BPRS Emotional withdrawal improvement (PPD patient 1, Day 7): 4 | BPRS Emotional withdrawal score (PPD patient 1, Day 7): 1 | BPRS Excitement improvement (PPD patient 1, Day 7): 1 | BPRS Excitement score (PPD patient 1, Day 7): 1 | BPRS Grandiosity improvement (PPD patient 1, Day 7): 0 | BPRS Grandiosity score (PPD patient 1, Day 7): 1 | BPRS Guilt feelings improvement (PPD patient 1, Day 7): 5 | BPRS Guilt feelings score (PPD patient 1, Day 7): 1 | BPRS Hallucinatory behaviour improvement (PPD patient 1, Day 7): 0 | BPRS Hallucinatory behaviour score (PPD patient 1, Day 7): 1 | BPRS Hostility improvement (PPD patient 1, Day 7): 0 | BPRS Hostility score (PPD patient 1, Day 7): 1 | BPRS Mannerisms and Posturing improvement (PPD patient 1, Day 7): 0 | BPRS Mannerisms and Posturing score (PPD patient 1, Day 7): 1 | BPRS Motor retardation improvement (PPD patient 1, Day 7): 0 | BPRS Motor retardation score (PPD patient 1, Day 7): 1 | BPRS Somatic Concern improvement (PPD patient 1, Day 7): 5 | BPRS Somatic Concern score (PPD patient 1, Day 7): 1 | BPRS Suspiciousness improvement (PPD patient 1, Day 7): 0 | BPRS Suspiciousness score (PPD patient 1, Day 7): 1 | BPRS Tension improvement (PPD patient 1, Day 7): 5 | BPRS Tension score (PPD patient 1, Day 7): 1 | BPRS Uncooperativeness improvement (PPD patient 1, Day 7): 0 | BPRS Uncooperativeness score (PPD patient 1, Day 7): 1 | BPRS Unusual Thought Content improvement (PPD patient 1, Day 7): 0 | BPRS Unusual Thought Content score (PPD patient 1, Day 7): 1 | MADRS Apparent sadness improvement (PPD patient 1, Day 7): 5 | MADRS Apparent sadness score (PPD patient 1, Day 7): 0 | MADRS Concentration Difficulties improvement (PPD patient 1, Day 7): 0 | MADRS Concentration Difficulties score (PPD patient 1, Day 7): 0 | MADRS Inability to Feel improvement (PPD patient 1, Day 7): 3 | MADRS Inability to Feel score (PPD patient 1, Day 7): 0 | MADRS Inner Tension improvement (PPD patient 1, Day 7): 4 | MADRS Inner Tension score (PPD patient 1, Day 7): 1 | MADRS Lassitude improvement (PPD patient 1, Day 7): 3 | MADRS Lassitude score (PPD patient 1, Day 7): 0 | MADRS Pessimistic Thoughts improvement (PPD patient 1, Day 7): 4 | MADRS Pessimistic Thoughts score (PPD patient 1, Day 7): 0 | MADRS Reduced Sleep improvement (PPD patient 1, Day 7): 5 | MADRS Reduced Sleep score (PPD patient 1, Day 7): 0 | MADRS Reduced appetite improvement (PPD patient 1, Day 7): 0 | MADRS Reduced appetite score (PPD patient 1, Day 7): 0 | MADRS Reported sadness improvement (PPD patient 1, Day 7): 4 | MADRS Reported sadness score (PPD patient 1, Day 7): 0 | MADRS Suicidal Thoughts improvement (PPD patient 1, Day 7): 0 | MADRS Suicidal Thoughts score (PPD patient 1, Day 7): 0 | Total MADRS improvement (PPD patient 1, Day 7): 28 | Total MADRS score (PPD patient 1, Day 7): 1 | BIMF total score improvement (PPD patient 1, Day 7, from 92 to 105): 14% | BPRS Anxiety improvement (PPD patient 1, Discharge): 6 | BPRS Anxiety score (PPD patient 1, Discharge): 1 | BPRS Blunted affect improvement (PPD patient 1, Discharge): 0 | BPRS Blunted affect score (PPD patient 1, Discharge): 1 | BPRS Conceptual disorganization improvement (PPD patient 1, Discharge): 0 | BPRS Conceptual disorganization score (PPD patient 1, Discharge): 1 | BPRS Depressive Mood improvement (PPD patient 1, Discharge): 5 | BPRS Depressive Mood score (PPD patient 1, Discharge): 1 | BPRS Disorientation improvement (PPD patient 1, Discharge): 0 | BPRS Disorientation score (PPD patient 1, Discharge): 1 | BPRS Emotional withdrawal improvement (PPD patient 1, Discharge): 4 | BPRS Emotional withdrawal score (PPD patient 1, Discharge): 1 | BPRS Excitement improvement (PPD patient 1, Discharge): 1 | BPRS Excitement score (PPD patient 1, Discharge): 1 | BPRS Grandiosity improvement (PPD patient 1, Discharge): 0 | BPRS Grandiosity score (PPD patient 1, Discharge): 1 | BPRS Guilt feelings improvement (PPD patient 1, Discharge): 5 | BPRS Guilt feelings score (PPD patient 1, Discharge): 1 | BPRS Hallucinatory behaviour improvement (PPD patient 1, Discharge): 0 | BPRS Hallucinatory behaviour score (PPD patient 1, Discharge): 1 | BPRS Hostility improvement (PPD patient 1, Discharge): 0 | BPRS Hostility score (PPD patient 1, Discharge): 1 | BPRS Mannerisms and Posturing improvement (PPD patient 1, Discharge): 0 | BPRS Mannerisms and Posturing score (PPD patient 1, Discharge): 1 | BPRS Motor retardation improvement (PPD patient 1, Discharge): 0 | BPRS Motor retardation score (PPD patient 1, Discharge): 1 | BPRS Somatic Concern improvement (PPD patient 1, Discharge): 5 | BPRS Somatic Concern score (PPD patient 1, Discharge): 1 | BPRS Suspiciousness improvement (PPD patient 1, Discharge): 0 | BPRS Suspiciousness score (PPD patient 1, Discharge): 1 | BPRS Tension improvement (PPD patient 1, Discharge): 5 | BPRS Tension score (PPD patient 1, Discharge): 1 | BPRS Uncooperativeness improvement (PPD patient 1, Discharge): 0 | BPRS Uncooperativeness score (PPD patient 1, Discharge): 1 | BPRS Unusual Thought Content improvement (PPD patient 1, Discharge): 0 | BPRS Unusual Thought Content score (PPD patient 1, Discharge): 1 | time to clinical remission after administration (PPD patient 1, IDR 6 mg then 12 mg): ≤ 2 h | PES score (intensity of psychedelic experience) (PPD patient 1, nominal dose 6 mg): 17.3 | changes in vital parameters (PPD patient 1, shortly after administration): temporary, clinically non-relevant increase in heart rate and blood pressure | PES score (intensity of psychedelic experience) (PPD patient 1, subsequent dose 12 mg): 85.7 | ECG, safety laboratory analyses, CADSS (PPD patient 2): unremarkable | MADRS response (at least 50% improvement) and MADRS remission (total score 10 or less) (PPD patient 2): fulfilled standard criteria | reported adverse events (mild, resolved spontaneously) (PPD patient 2): vomiting on Day 0 and headache on Day 5 | PES score (intensity of psychedelic experience) (PPD patient 2, nominal dose 6 mg): 1 | changes in vital parameters (PPD patient 2, shortly after administration): temporary, clinically non-relevant increase in heart rate | PES score (intensity of psychedelic experience) (PPD patient 2, subsequent dose 12 mg): 94.7

Reference: patent US20240108602A1, “TREATMENT OF MENTAL DISORDERS” (GH Research Ireland Limited, priority 2022, published 2024)
